# From patent US10822317B2, “Methods and compositions for wound healing” (QBiotics Limited, priority 2013, dated 2020)
# Experiments:
# [1] = tested on: wounds following necrosis and sloughing of spontaneous tumours; experiment: Resolution of wounds after sloughing of spontaneous tumours treated by intratumoural injection, feline; format: in vivo
# Experimental: Veterinary clinical data on speed of resolution of wounds that formed following necrosis and sloughing of spontaneous tumours that had been treated by intratumoural injection of Compound 1 (30% 1,2 propanediol formulation at either 0.5 or 1.0 mg/mL concentration) in twenty-four companion animals are summarised in Table 17.
# Note that all wounds were managed as open wounds and no bandaging, dressings, lotions or concomitant medications were used in any of these cases.
# [2] = tested on: severe lacerated wound on the head; experiment: Veterinary case study 10, lacerated head wound of a spectacled flying fox; format: in vivo, Pteropus conspicillatus
# Experimental: (§1) Seven dogs (Canis lupus familiaris) and one tree kangaroo (Dendrolagus humholzii) with chronic, non-healing wounds that were unresponsive to current veterinary standards-of-care for these indications were treated with Compound 1 by independent veterinarians. A second tree kangaroo and a spectacled flying fox (Pteropus conspicillatus) with wounds unsuited for initial treatment with current standards-of-care were also treated with Compound 1. All cases were managed as open wounds without the use of dressings or other bandaging during the course of treatment with Compound 1 and the subsequent period of wound resolution. Unless stated in individual case studies, no concomitant medications were used over the course of treatments with Compound 1.
# Case notes: • The patient presented as a 4 month old flying fox with a deep penetrating wound on the head […] caused by entanglement in barbed wire. • In the opinion of the treating veterinarian who had extensive experience in wildlife injuries (including flying foxes) normal standard of care treatments were likely to be highly problematic in causing the right eye to lose shape and not be able to close, either due to excessive scar tissue formation associated with surgery or the extent of granulation required if wound healing dressings were applied. • Compound 1 was applied to the wound in 3 applications of 0.1 mL of 5 mg/mL gel formulation over a 28 day period (Days 1, 10 and 28). […] A very healthy granulation bed was present.
# [3] = tested on: chronic, non-healing wounds; experiment: Veterinary case studies 1 to 7, non-healing wounds in dogs; format: in vivo, Canis lupus familiaris
# Experimental: as §1
# Case notes: • Frail patient with severe osteoarthritis, considered a high anaesthetic risk for any surgical intervention. • Patient had persistent infected cyst on the back proximal to the tail that had not responded to regular draining and injection of the cyst with antibiotics (gentamycin, enrofloxacin, norocillin) over a 5 month period. • Patient presented with the burst cyst and elevated temperature. The cyst was cleaned to remove dead skin and then flushed with saline and chlorhexidene.
# The wound area was fully healed by 63 days after treatment. • The wound on leg also responded quickly with eschar present in localised areas. By 14 days the eschar had largely shed and healthy underlying granulation tissue was observed.
# Case notes: • Patient presented with a non-healing laceration due to a hunting accident that had been present on the left ear for more than 6 weeks. • Three treatments, each of 0.1 mL of 5 mg/mL gel formulation of Compound 1, were applied to the affected area at 8 day intervals. No concomitant medications were used during the course of treatment of the patient with Compound 1. • By 41 days after the first treatment with Compound 1 the wound had fully closed.
# Case notes: • The patient presented with non-healing (infected and inflamed) sore on upper part of left ear and was treated for 10 weeks with standard-of-care protocols involving regular application of (i) a topical dermatological formulation (Neotopic) combining antibacterial (neomycin sulphate), anti-inflammatory (hydrocortisone) and anti-pruritic (lignocaine) agents, and (b) a commercial suspension (Auracol) with anti-inflammatory (prednisolone), antifungal (miconazole nitrate) and antibacterial (polymixin B sulphate) components. Prior to these treatments the patient was on an on-going course of low dose oral corticosteroids (macrolone) for treatment of chronic canine atopic dermatitis syndrome. • After 10 weeks of the standard-of-care protocol there was no sign of wound resolution. • A single treatment of 3 mL of a 5 mg/mL gel formulation of Compound 1 was applied to the affected area and within 15 minutes of application of Compound 1 there was discernable reddening of the treated area. • From 4 days after treatment with Compound 1 the patient recommenced low dose daily corticosteroids (macrolone) for treatment of the severe atopic dermatitis.
# Case notes: • The patient presented with two non-healing wounds at the tip and base of the right ear and a non-healing wound on the snout that owner had observed present for more than 4 weeks. Possible origin was infected spider or other insect bites. • Two treatments, each of 0.1 mL of 5 mg/mL gel formulation of Compound 1, were applied to both affected areas on the ears at a 5 day interval.
# [4] = Case 1, 76 days following the final treatment
# [5] = Case 5, 152 days after the initial treatment
# [6] = Case 6, 83 days after treatment
smiles,measurement,setting,value
"CC=C(C)C(=O)OC1C(C)C2(O)C(C3OC3(CO)C(O)C3(O)C(=O)C(C)=CC32)C2C(C)(C)C12OC(=O)C(C)CC (stereo not drawn) [Compound 1, 12-tigloyl-13-(2-methylbutanoyl)-6,7-epoxy-4,5,9,12,13,20-hexahydroxy-1-tigliaen-3-one]","No. of cats: Tissue deficit at wound site, Minor",[1]; 5 to 10% tissue deficit across the original wound area,0
same,"No. of cats: Tissue deficit at wound site, Nil or minimal",[1]; <5% tissue deficit across the original wound area,3
same,"No. of cats: Tissue deficit at wound site, Substantial",[1]; >10% tissue deficit across the original wound area,0
same,Average days from tumour slough to wound closure,"[1]; Feline, wound size class 0.25 to 12 cm^2, 3 cases",17 ± 10 days
same,"No. of cats: Hair regrowth on wound area, Sparse",[1]; Hair covers <50% of original wound area,0
same,"No. of cats: Hair regrowth on wound area, Partial",[1]; Hair covers >50% of original wound area,1
same,"No. of cats: Hair regrowth on wound area, Full",[1]; Hair covers >95% of original wound area,2
same,"No. of cats: Scarring & skin thickening, Minor",[1]; Localised scar covering <10% of original wound area,0
same,"No. of cats: Scarring & skin thickening, Substantial",[1]; Scarring covering >10% of original wound area,0
same,"No. of cats: Scarring & skin thickening, Nil or minimal",[1]; Scarring not obvious visually or by touch,3
same,"No. of cats: Change in hair colour, No",[1]; healed wound site,2
same,"No. of cats: Change in hair colour, Yes",[1]; healed wound site,1
same,"No. of cats: Skin pigmentation, Hyperpigmentation",[1]; healed wound site,0
same,"No. of cats: Skin pigmentation, Hypopigmentation",[1]; healed wound site,0
same,"No. of cats: Skin pigmentation, Normal",[1]; healed wound site,3
same,"No. of cats: Skin pigmentation, Patchy",[1]; healed wound site,0
same,wound status,"[2]; Case 10, flying fox, head wound, 3 x 0.1 mL gel 5 mg/mL (Days 1, 10, 28), 14 days after the initial treatment",significant tissue infill and remodeling
same,wound status,"[2]; Case 10, 55 days after the initial treatment",good tissue infill over the entire area of the original wound
same,eye function,"[2]; Case 10, by 28 days",capable of fully closing
same,wound status,"[3]; Case 1, Bernese Mountain Dog, facial wound, gel 3 mg/mL x5, then 1 mL 0.5 mg/mL injected, 35 days following injection",infilled with healthy differentiating granulation tissue
same,"hair regrowth, % of the original wound area",[3]; [4],greater than 95%
same,wound outcome,[3]; [4],healed and was infilled with normal tissue minimal scarring
same,wound area as % of the area of the original wound,"[3]; Case 2, Boxer, burst infected cyst, 0.5 mL gel 3 mg/mL, 5 days post treatment",less than 30%
same,hair regrowth over the original wound area,"[3]; Case 2, 30 days",greater than 70%
same,wound outcome,"[3]; Case 2, 30 days",resolved with normal tissue
same,wound size as % of original size,"[3]; Case 3, Chow Chow, two bite wounds, 0.4 mL gel 3 mg/mL each, 15 days post treatment",less than 40%
same,wound outcome,"[3]; Case 3, 46 days following treatment","completely resolved with normal tissue, no scarring and complete hair regrowth"
same,"time to complete wound closure, facial wound","[3]; Case 4, Boxer, single 0.4 mL gel 5 mg/mL",≤ 14 days
same,"hair cover, leg wound","[3]; Case 4, 63 days after treatment",greater than 95%
same,"time to fully healed wound area, facial wound","[3]; Case 4, single 0.4 mL gel 5 mg/mL",≤ 63 days
same,"wound outcome, leg wound","[3]; Case 4, single 0.6 mL gel 5 mg/mL, 63 days after treatment",completely closed
same,time to full wound closure,"[3]; Case 5, Bull Arab, ear laceration, 3 x 0.1 mL gel 5 mg/mL at 8 day intervals, after first treatment",≤ 41 days
same,hair coverage over the original wound site,[3]; [5],greater than 80%
same,wound outcome,[3]; [5],"complete wound resolution, minimal scarring"
same,time to discernable reddening of the treated area,"[3]; Case 6, Boxer, ear wound, single 3 mL gel 5 mg/mL",≤ 15 min
same,wound status,"[3]; Case 6, 17 days after treatment",no sign of infection or inflammation
same,"hair regrowth, % of the original wound area",[3]; [6],more than 90%
same,wound outcome,[3]; [6],complete wound closure
same,scarring,"[3]; Case 6, 139 days after treatment",no evidence of scarring
same,"wound status, ear wounds","[3]; Case 7, Jack Russell Terrier, 2 x 0.1 mL gel 5 mg/mL, 13 days after the first treatment",contracted significantly and had formed eschars
same,"time to full wound closure, ear wounds","[3]; Case 7, 2 x 0.1 mL gel 5 mg/mL",≤ 29 days
same,"wound outcome, snout wound","[3]; Case 7, single 0.1 mL gel 5 mg/mL, 16 days after treatment",fully resolved
